ChEMBL document CHEMBL5625228, “Design, synthesis, and bioactivity evaluation of novel amide/sulfonamide derivatives as potential anti-inflammatory agents against acute lung injury and ulcerative colitis” (Eur J Med Chem, 2023)
Activity calls are given as the source filed them. The calls are words filed in the database; no cut-off is given here.

Columns and labels:
[1] = tested on: J774.A1; assay: Antiinflammatory activity against mouse J774.A1 cells assessed as inhibition of LPS-induced TNF-alpha release preincubated with compound for 30 mins followed by LPS-induction and measured after 24 hrs by ELISA analysis; assay type: functional, cell-based
[2] = tested on: J774.A1; assay: Antiinflammatory activity against mouse J774.A1 cells assessed as inhibition of LPS-induced IL-6 production pretreated with compound for 30 mins followed by LPS induction and measured after 24 hrs by ELISA analysis; assay type: functional; conditions: time 1470 min; 24.5 h; further: test concentration or dose not given here
[3] = tested on: J774.A1; assay: Antiinflammatory activity against LPS-induced mouse J774.A1 cells assessed as downregulation of IL-6 mRNA level preincubated with compound for 30 mins followed by LPS-induction and measured after 6 hrs by qPCR analysis; assay type: functional, cell-based; conditions: time 390.0 min
[4] = tested on: J774.A1; assay: Antiinflammatory activity against mouse J774.A1 cells assessed as inhibition of LPS-induced TNF-alpha production pretreated with compound for 30 mins followed by LPS induction and measured after 24 hrs by ELISA analysis; assay type: functional; conditions: time 1470 min; 24.5 h; further: test concentration or dose not given here
[5] = tested on: J774.A1; assay: Antiinflammatory activity against mouse J774.A1 cells assessed as inhibition of LPS-induced IL-6 release preincubated with compound for 30 mins followed by LPS-induction and measured after 24 hrs by ELISA analysis; assay type: functional, cell-based
[6] = tested on: J774.A1; assay: Antiinflammatory activity against LPS-induced mouse J774.A1 cells assessed as downregulation of TNF-alpha mRNA level preincubated with compound for 30 mins followed by LPS-induction and measured after 6 hrs by qPCR analysis; assay type: functional, cell-based; conditions: time 390.0 min
[7] = tested on: J774.A1; assay: Antiinflammatory activity against LPS-induced mouse J774.A1 cells assessed as effect on IL-6 mRNA level preincubated with compound for 30 mins followed by LPS-induction and measured after 6 hrs by qPCR analysis; assay type: functional, cell-based; conditions: time 390.0 min

Row | SMILES | IC50 [1] [µM] | inhibition (INH) [2] [%] | Activity [3] | inhibition (INH) [4] [%] | IC50 [5] [µM] | Activity [6] | Activity [7]
1 | O=[N+]([O-])c1ccc(CN2CCN(c3ccc(S(=O)(=O)NCc4ccccn4)cc3[N+](=O)[O-])CC2)cc1 | 8.59 | 69.93 | Active | 42.19 | 1.32 | Active | –
2 | CC(=O)Nc1ncc(CN2CCN(c3ccc(S(=O)(=O)NCc4ccccn4)cc3[N+](=O)[O-])CC2)s1 | – | 40.3 | – | 31.13 | – | – | –
3 | COc1ccc(NC(=O)CN2CCN(Cc3cccc([N+](=O)[O-])c3)CC2)cn1 | – | 20.88 | – | 41.2 | – | – | –
4 | COc1ccc(CN2CCN(CCS(=O)(=O)Nc3cccc4ccccc34)CC2)cc1 | – | 46.54 | – | 38.07 | – | – | –
5 | O=C(CCN1CCN(Cc2ccccc2)CC1)Nc1cccc2ccccc12 | – | 50.93 | – | 55.28 | – | – | –
6 | O=C(CN1CCN(c2ccc([N+](=O)[O-])cc2)CC1)NCc1ccccn1 | – | 49.31 | – | 57.51 | – | – | –
7 | O=[N+]([O-])c1cc(S(=O)(=O)NCc2ccccn2)ccc1N1CCN(Cc2ccccc2)CC1 | 10.1 | 69.3 | – | 50.22 | 4.94 | – | inactive
8 | O=[N+]([O-])c1cccc(CN2CCN(CCS(=O)(=O)Nc3cccc4ccccc34)CC2)c1 | – | 39.74 | – | 48.04 | – | – | –
9 | O=[N+]([O-])c1cccc(CN2CCN(c3ccc(S(=O)(=O)NCc4ccccn4)cc3[N+](=O)[O-])CC2)c1 | 3.99 | 71.33 | – | 43.51 | 1.38 | – | inactive
10 | COc1ccc(NC(=O)CN2CCN(Cc3ccc([N+](=O)[O-])cc3)CC2)cn1 | – | 35.43 | – | 37.85 | – | – | –
11 | COc1ccc(NS(=O)(=O)CCN2CCN(Cc3ccc([N+](=O)[O-])cc3)CC2)cn1 | – | 42.48 | – | 38.83 | – | – | –
12 | COc1ccc(NS(=O)(=O)CCN2CCN(c3ncccn3)CC2)cn1 | – | 42 | – | 37.77 | – | – | –
13 | O=S(=O)(CCN1CCN(Cc2ccccc2)CC1)Nc1cccc2ccccc12 | – | 36.45 | – | 38.58 | – | – | –
14 | O=C(CN1CCN(c2ncccn2)CC1)NCc1ccccn1 | – | 40.7 | – | 38.32 | – | – | –
15 | COc1ccc(NC(=O)CN2CCN(Cc3cnc(NC(C)=O)s3)CC2)cn1 | – | 47.13 | – | 53.08 | – | – | –
